Experimental findings from PubChem BioAssay AID1259407 (Chemical Carcinogenesis Research Information System (CCRIS), 2018) are described below.

The test system of the series is CCRIS mutagenicity, Ames/micronucleus/aberration tests. Briefly: CCRIS mutagenicity studies.
[1] abbreviates: Test System: AMES SALMONELLA TYPHIMURIUM, Strain/Indicator: TA98, Metabolic Activation: NONE, Method: STANDARD PLATE.
Where [2] appears, read: Test System: AMES SALMONELLA TYPHIMURIUM, Strain/Indicator: TA100, Metabolic Activation: NONE, Method: STANDARD PLATE.
The mark [3] stands for this setting: Test System: AMES SALMONELLA TYPHIMURIUM, Strain/Indicator: TA1538, Metabolic Activation: NONE, Method: STANDARD PLATE.
The mark [4] stands for this setting: Test System: AMES SALMONELLA TYPHIMURIUM, Strain/Indicator: TA104, Metabolic Activation: NONE, Method: STANDARD PLATE.

Activity calls are given as the source filed them. How the calls were made is not given here.

Regarding `Cc1cc(N=Nc2ccccc2C)ccc1N`, the mutagenic call by setting is: (Test System: AMES SALMONELLA TYPHIMURIUM, Strain/Indicator: TA98, Metabolic Activation: HAMSTER, LIVER, S-9, AROCLOR 1254, Method: STANDARD PLATE) “active; positive”; (Test System: AMES SALMONELLA TYPHIMURIUM, Strain/Indicator: TA98, Metabolic Activation: HAMSTER, LIVER, S-9, Method: PREINCUBATION (PRIVAL METHOD)) “active; positive”; (Test System: AMES SALMONELLA TYPHIMURIUM, Strain/Indicator: TA98, Metabolic Activation: NONE, Method: PREINCUBATION) “inactive; negative”; under setting [1], “inactive; negative”; (Test System: AMES SALMONELLA TYPHIMURIUM, Strain/Indicator: TA98, Metabolic Activation: RAT LIVER S-9, Method: PREINCUBATION) “active; positive”; (Test System: AMES SALMONELLA TYPHIMURIUM, Strain/Indicator: TA98, Metabolic Activation: RAT LIVER, CYTOSOL, AROCLOR 1254, Method: PREINCUBATION) “inactive; negative”. For the same compound, the mutagenic call is “active; positive” (Test System: AMES SALMONELLA TYPHIMURIUM, Strain/Indicator: TA98, Metabolic Activation: RAT LIVER, MICROSOMES, AROCLOR 1254, Method: PREINCUBATION); “active; positive” (Test System: AMES SALMONELLA TYPHIMURIUM, Strain/Indicator: TA98, Metabolic Activation: RAT, LIVER, MICROSOMES, AROCLOR 1254, Method: PREINCUBATION); “inactive; negative” (Test System: AMES SALMONELLA TYPHIMURIUM, Strain/Indicator: TA98, Metabolic Activation: RAT, LIVER, MICROSOMES, O-AMINOAZOTOLUENE, Method: PREINCUBATION); “inactive; negative” (Test System: AMES SALMONELLA TYPHIMURIUM, Strain/Indicator: TA98, Metabolic Activation: RAT, LIVER, MICROSOMES, Method: PREINCUBATION); “active; positive” (Test System: AMES SALMONELLA TYPHIMURIUM, Strain/Indicator: TA98, Metabolic Activation: RAT, LIVER, S-9, AROCLOR 1254, HAMSTER, LIVER, S-9, AROCLOR 1254, Method: STANDARD PLATE); “active; positive” (Test System: AMES SALMONELLA TYPHIMURIUM, Strain/Indicator: TA98, Metabolic Activation: RAT, LIVER, S-9, AROCLOR 1254, Method: STANDARD PLATE). Moreover, the mutagenic call (Test System: AMES SALMONELLA TYPHIMURIUM, Strain/Indicator: TA98, Metabolic Activation: RAT, LIVER, S-9, KC500 OR PHENOBARBITAL, Method: LIQUID SUSPENSION) is “active; positive”; the mutagenic call (Test System: AMES SALMONELLA TYPHIMURIUM, Strain/Indicator: TA98, Metabolic Activation: RAT, LIVER, S-9, PCB, Method: PREINCUBATION) was “active; positive”; the mutagenic call (Test System: AMES SALMONELLA TYPHIMURIUM, Strain/Indicator: TA98, Metabolic Activation: RAT, LIVER, S-9, POLYCHLORINATED BIPHENYLS, Method: PREINCUBATION) is “active; positive”; the mutagenic call (Test System: AMES SALMONELLA TYPHIMURIUM, Strain/Indicator: TA100, Metabolic Activation: HAMSTER, LIVER, S-9, AROCLOR 1254, Method: STANDARD PLATE) was “active; positive”; the mutagenic call (Test System: AMES SALMONELLA TYPHIMURIUM, Strain/Indicator: TA100, Metabolic Activation: HAMSTER, LIVER, S-9, Method: PREINCUBATION (PRIVAL METHOD)) is “active; positive”; the mutagenic call (Test System: AMES SALMONELLA TYPHIMURIUM, Strain/Indicator: TA100, Metabolic Activation: NONE, Method: PREINCUBATION) was “inactive; negative”. Further, the mutagenic call is “inactive; negative” under setting [2]; “active; positive” (Test System: AMES SALMONELLA TYPHIMURIUM, Strain/Indicator: TA100, Metabolic Activation: RAT LIVER S-9, Method: PREINCUBATION); “active; positive” (Test System: AMES SALMONELLA TYPHIMURIUM, Strain/Indicator: TA100, Metabolic Activation: RAT, LIVER, S-9, AROCLOR 1254, HAMSTER, LIVER, S-9, AROCLOR 1254, Method: STANDARD PLATE); “active; positive” (Test System: AMES SALMONELLA TYPHIMURIUM, Strain/Indicator: TA100, Metabolic Activation: RAT, LIVER, S-9, AROCLOR 1254, Method: STANDARD PLATE); “active; positive” (Test System: AMES SALMONELLA TYPHIMURIUM, Strain/Indicator: TA100, Metabolic Activation: RAT, LIVER, S-9, KC500 OR PHENOBARBITAL, Method: LIQUID SUSPENSION); “active; positive” (Test System: AMES SALMONELLA TYPHIMURIUM, Strain/Indicator: TA100, Metabolic Activation: RAT, LIVER, S-9, PCB, Method: PREINCUBATION). The mutagenic call was “active; positive” (Test System: AMES SALMONELLA TYPHIMURIUM, Strain/Indicator: TA100, Metabolic Activation: RAT, LIVER, S-9, POLYCHLORINATED BIPHENYLS, Method: PREINCUBATION); “inactive; negative” under setting [3]; “active; positive” (Test System: AMES SALMONELLA TYPHIMURIUM, Strain/Indicator: TA1538, Metabolic Activation: RAT, LIVER, S-9, AROCLOR 1254, HAMSTER, LIVER, S-9, AROCLOR 1254, Method: STANDARD PLATE); “active; positive” (Test System: AMES SALMONELLA TYPHIMURIUM, Strain/Indicator: TA1538, Metabolic Activation: RAT, LIVER, S-9, AROCLOR 1254, Method: STANDARD PLATE); “active; positive. reevaluation of results: positive” (Test System: MOUSE LYMPHOMA, Strain/Indicator: L5178Y (TK+/TK-), Metabolic Activation: RAT, LIVER, S-9, AROCLOR 1254, Method: SUSPENSION/PLATE); “inactive; negative” (Test System: Mouse lymphoma, Strain/Indicator: L5178Y (tk+/tk-), Metabolic Activation: None, Method: Suspension/plate).
Take `CCC(CCOCn1cc[n+](C)c1/C=N/O)[N+](=O)[O-]` (stereo not drawn): the mutagenic call was “inactive; negative” (Test System: AMES SALMONELLA TYPHIMURIUM, Strain/Indicator: TA97, Metabolic Activation: NONE, Method: STANDARD PLATE); “inactive; negative” (Test System: AMES SALMONELLA TYPHIMURIUM, Strain/Indicator: TA97, Metabolic Activation: S-9, Method: STANDARD PLATE); “inactive; negative” under setting [1]; “inactive; negative” (Test System: AMES SALMONELLA TYPHIMURIUM, Strain/Indicator: TA98, Metabolic Activation: S-9, Method: STANDARD PLATE); “inactive; negative” under setting [2]; “inactive; negative” (Test System: AMES SALMONELLA TYPHIMURIUM, Strain/Indicator: TA100, Metabolic Activation: S-9, Method: STANDARD PLATE). Further, the mutagenic call is, setting by setting: under setting [4], “inactive; negative”; (Test System: AMES SALMONELLA TYPHIMURIUM, Strain/Indicator: TA104, Metabolic Activation: S-9, Method: STANDARD PLATE) “inactive; negative”; (Test System: AMES SALMONELLA TYPHIMURIUM, Strain/Indicator: TA1535, Metabolic Activation: NONE, Method: STANDARD PLATE) “inactive; negative”; (Test System: AMES SALMONELLA TYPHIMURIUM, Strain/Indicator: TA1535, Metabolic Activation: S-9, Method: STANDARD PLATE) “inactive; negative”; (Test System: AMES SALMONELLA TYPHIMURIUM, Strain/Indicator: TA1537, Metabolic Activation: NONE, Method: STANDARD PLATE) “inactive; negative”; (Test System: AMES SALMONELLA TYPHIMURIUM, Strain/Indicator: TA1537, Metabolic Activation: S-9, Method: STANDARD PLATE) “inactive; negative”. The mutagenic call is “inactive; negative” under setting [3] and “inactive; negative” (Test System: AMES SALMONELLA TYPHIMURIUM, Strain/Indicator: TA1538, Metabolic Activation: S-9, Method: STANDARD PLATE).
Turning to `CCn1cc(C(=O)O)c(=O)c2cc(F)c(N3CCNCC3)nc21`, the mutagenic call is “inactive; negative” (Test System: AMES SALMONELLA TYPHIMURIUM, Strain/Indicator: HISG428, Metabolic Activation: NONE, Method: STANDARD PLATE); “active; positive” (Test System: AMES SALMONELLA TYPHIMURIUM, Strain/Indicator: TA92, Metabolic Activation: NONE, Method: STANDARD PLATE); “active; positive” (Test System: AMES SALMONELLA TYPHIMURIUM, Strain/Indicator: TA102, Metabolic Activation: NONE, Method: STANDARD PLATE); “active; positive” (Test System: AMES SALMONELLA TYPHIMURIUM, Strain/Indicator: TA103, Metabolic Activation: NONE, Method: STANDARD PLATE); “inactive; negative” under setting [4]; “active; positive” (Test System: AMES SALMONELLA TYPHIMURIUM, Strain/Indicator: TA2638, Metabolic Activation: NONE, Method: STANDARD PLATE). Also, the mutagenic call is “inactive; negative” (Test System: AMES SALMONELLA TYPHIMURIUM, Strain/Indicator: TA2661, Metabolic Activation: NONE, Method: STANDARD PLATE); “active; positive” (Test System: AMES SALMONELLA TYPHIMURIUM, Strain/Indicator: TA2662, Metabolic Activation: NONE, Method: STANDARD PLATE); “inactive; negative” (Test System: AMES SALMONELLA TYPHIMURIUM, Strain/Indicator: TA2678, Metabolic Activation: NONE, Method: STANDARD PLATE).
